The results in this text go back to publication PMC6677171, “Subunit interactions and arrangements in the fission yeast Mis16–Mis18–Mis19 complex” (Life Science Alliance, 2019).

Entries after “also recorded” stand apart in the source; their conditions may differ. Where no end group is shown, it is not given here.

Assay [1] deals with T1, Mis16 (Schizosaccharomyces pombe, UniProt O94244).
T1 construct: double-Strep-Tactin tag (TEV protease-cleavable) (N, cleaved yes); made in house; host or cells: insect cells (baculovirus made in Sf21, expression in Hi5)
As to the kind of experiment: ITC binding of peptides to Mis16. More on the design: species or system S. pombe. The note with it: for binding to Mis16 (in words): 30°C, mutants of the Mis19 C-terminal peptide (residues 97–112). On the procedure: (§1) ITC experiments were performed at 30°C using an iTC200 (MicroCal). Samples were concentrated in a 50 mM Tris, pH 7.5, 100 mM NaCl, 4% glycerol, and […] buffer. Protein concentrations were determined using a spectrophotometer. The concentration of protein complex in the ITC cell was 26 μM. The lyophilised peptides of histone H4^27–50 or Mis19^97–112 were dissolved in the ITC buffer to a concentration of 260 μM. 3-μl injections were performed at 1,000 rpm stirring speed with an injection spacing of 3 min. The thermodynamic data were processed with the ORIGIN program (MicroCal).

The subject of assay [2] is Mis16–Mis18–Mis19 complex. The assay can be described thus: Competition assay by size-exclusion chromatography: disruption of Mis16–Mis18–Mis19 complex. It counts as binding, S. pombe. To be noted: preformed complex challenged with peptides from Mis19 N terminus. The source says: It has previously been reported that the interaction between Mis18 and Mis 19 occurs via the N-terminal region of Mis19 binding to the C terminus (coiled-coil) of Mis18 ([Hayashi et al, 2014]). We tried to analyse this interaction in more detail. Given that residues 56–112 of Mis19 are involved interactions with Mis16, we constructed two truncations of Mis19 with half of the remaining N-terminal residues deleted in each case (Mis19^27-C and Mis19^44-C). We first asked if these Mis16–Mis19 constructs could still interact with Mis18 in an affinity pull-down experiment (Figs 6A and S6A). […] We then add Mis18 to the Mis16–Mis19 constructs. […] To further analyse these interactions, we carried out competition assays, challenging preformed Mis16–Mis18–Mis19 complex with peptides from the N terminus of Mis19, analysing the results both by size-exclusion chromatography and affinity pull-down assays. […] To try and pinpoint the residues that might be responsible for the interaction with Mis18, we carried out a sequence alignment of the Mis19 N terminus and noticed two conserved stretches of residues characterised by an IxxxF pattern (motif 1) and LxxF (motif 2) (Fig 7A). The two motifs are coincident with the two truncations we identified: between residues 1–27 and 28–44, respectively. As the N terminus of Mis19 is likely to be solvent-exposed (from our crystal structure), we reasoned that the conserved hydrophobic residues probably participate in protein–protein interactions. To test this, we carried out another set of competition experiments using the intact Mis16–18–19 complex and peptides carrying mutations in motifs 1 and 2, separately or combined (Fig 7B).
Figure 6. The Mis19 N terminus binds Mis18. (A) Mis16–Mis18–Mis19 interactions assessed by pull-down. Input proteins are shown on the left. Binding of Mis16–Mis19 and Mis19 truncations to Mis18 are assessed by pull-down of Mis19 (right). (B) Mis16–19–18 binding assessed by size-exclusion and competition assays. Preformed Mis16–18–19 complex was challenged with peptides derived from the N terminus of Mis19 (indicated). […]
For orientation: Size exclusion chromatography separates by hydrodynamic size, large species first.

Assay [3] deals with Mis16–Mis18–Mis19 complex. The assay can be described thus: Competition assay by pull-down: disruption of Mis16–Mis18–Mis19 complex. It counts as binding, S. pombe. The note with it: preformed Mis16–Mis19–Strep–Mis18 complex challenged with peptide, SDS–PAGE. The source says:
It has previously been reported that the interaction between Mis18 and Mis 19 occurs via the N-terminal region of Mis19 binding to the C terminus (coiled-coil) of Mis18 ([Hayashi et al, 2014]). We tried to analyse this interaction in more detail. Given that residues 56–112 of Mis19 are involved interactions with Mis16, we constructed two truncations of Mis19 with half of the remaining N-terminal residues deleted in each case (Mis19^27-C and Mis19^44-C). We first asked if these Mis16–Mis19 constructs could still interact with Mis18 in an affinity pull-down experiment (Figs 6A and S6A). […] We then add Mis18 to the Mis16–Mis19 constructs. […] To further analyse these interactions, we carried out competition assays, challenging preformed Mis16–Mis18–Mis19 complex with peptides from the N terminus of Mis19, analysing the results both by size-exclusion chromatography and affinity pull-down assays. […]
Figure 6. […] (A) Mis16–Mis18–Mis19 interactions assessed by pull-down. […] Binding of Mis16–Mis19 and Mis19 truncations to Mis18 are assessed by pull-down of Mis19 (right). (B) Mis16–19–18 binding assessed by size-exclusion and competition assays. […]
All in vitro pull-down assays were performed using purified proteins or protein complexes. […] Input and pull-down elution samples were analysed by SDS–PAGE.

The target of assay [4] is T1, Mis16. As to the kind of experiment: Co-expression and affinity pull-down/size-exclusion co-purification of Mis19 deletions with Mis16. The note with it: co-expressed in insect cells, Strep-Tactin tag on Mis16, gel filtration, SDS–PAGE band. It counts as binding, S. pombe. The source says: Figure 2. Mis16–Mis19 contact regions. (A) Crystal structure of Mis16–Mis19 highlighting the Mis19-binding sites. Three putative binding sites A, B, and C (lighter to darker orange from N terminus to C terminus) are indicated. (B) Schematic of the various deletion constructs of Mis19 are used for binding studies showing the positions of sites A, B, and C. (C) Constructs containing affinity-tagged Mis16 and the Mis19 deletions shown above were co-expressed and purified by affinity pull-down and size-exclusion chromatography. SDS–PAGE gel of peak fractions is shown. Asterisks indicate impurities. (D) Close-up of the A- and C-binding sites. The locations of the kis1-1 (R65) and eic1-1 (F102) t.s. mutant residues are shown.
The C-terminal interaction of Mis19 with Mis16 (site C in our nomenclature) has been previously described ([An et al, 2018]). […] To test the contribution of the individual sites to the Mis16–Mis19 interaction, various truncated Mis19 constructs were designed, for which site A, […], or both A and C are missing (Fig 2B). Full-length Mis16 and Mis19C (includes sites A, B, and C, residues 52–112), construct 1 (includes site B and C, residues 66–112), construct 2 (includes binding site B, residues 66–99), and construct 3 (includes site A and B, residues 52–99) were co-expressed in insect cells, as the isolated Mis19 truncations cannot be expressed and purified. The complexes were purified using a Strep-Tactin affinity tag on Mis16 and subsequent gel filtration step. All complexes elute from gel filtration as a single species. […] This site is formed by part of the unstructured region of Mis19 running across the top edge of Mis16.
All proteins were expressed in insect cells using standard procedures. Genes were codon-optimised in all cases (GeneArt). Single protein constructs were cloned in pFastBac vectors (Invitrogen), whereas multi-protein complexes were cloned using the MultiBac system ([Fitzgerald et al, 2006]). The Mis16 protein carried a TEV protease-cleavable double-Strep-Tactin tag at the N terminus for purification purposes. All clones were sequence verified. […]

Assay [5] addresses T1, Mis16. As to the kind of experiment: ITC competition between H4α1 and Mis19 site C peptides for Mis16. It counts as binding, S. pombe. The note with it: Mis16 preincubated with one peptide before titration of the second, 30°C, pH 7.5. Here is the method:
Figure 3.
as §1

[6] abbreviates: ITC, 50 mM Tris, pH 7.5, 100 mM NaCl, 4% glycerol.

T1 sequence (O94244 whole entry): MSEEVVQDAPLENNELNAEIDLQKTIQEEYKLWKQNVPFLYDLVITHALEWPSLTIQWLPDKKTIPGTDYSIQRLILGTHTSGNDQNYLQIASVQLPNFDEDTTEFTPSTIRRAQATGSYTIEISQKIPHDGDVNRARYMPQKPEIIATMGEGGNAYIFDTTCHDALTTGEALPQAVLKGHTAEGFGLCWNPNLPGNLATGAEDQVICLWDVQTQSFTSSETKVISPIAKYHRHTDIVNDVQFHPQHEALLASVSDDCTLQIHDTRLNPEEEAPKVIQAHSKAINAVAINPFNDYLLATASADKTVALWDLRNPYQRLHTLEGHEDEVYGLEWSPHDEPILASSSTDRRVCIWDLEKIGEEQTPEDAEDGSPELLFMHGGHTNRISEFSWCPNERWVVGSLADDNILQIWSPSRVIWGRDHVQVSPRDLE

With LHNRSFLRRNVRAVKM [Mis19 V101S], at Mis16 [1] (setting [6]), the “binding to Mis16 (in words)” value is given as “reduced but did not abolish binding”. For “Mis19^1–44: peptide from the N terminus of Mis19 (MDLMPLEKARAIEIAFDNVFHNTKIPDNLQQFDAILKRLERRRF)”, the “disruption of preformed Mis16–Mis18–Mis19 complex (size-exclusion)” value (from here on “disruption … (size-exclusion)”) in assay [2] was “effectively disrupts the complex, splitting it into a Mis18-containing and Mis16–Mis19–containing fractions”. Regarding LHNRVSLRRNVRAVKM [Mis19 F102S], the “binding to Mis16 (in words)” value at Mis16 [1] (setting [6]) is reported as “reduced but did not abolish binding”. As for “Mis19^1–27: peptide from the N terminus of Mis19 (MDLMPLEKARAIEIAFDNVFHNTKIPD)”, in assay [2], the “disruption … (size-exclusion)” value was “no effect on complex formation”. Moreover, the “disruption of preformed Mis16–Mis18–Mis19 complex (pull-down)” value in assay [3] was “no effect on complex formation”. Consider “construct 2: Mis19 deletion, includes binding site B, residues 66–99 (EFGVKDNHNHPINLHSLRSKSLIRAQGKKLDLHN; UniProt O42995 66-99, looked up, fragment)”, for which the “association with Mis16” value in the assay with Mis16 [4] is “only Mis16 could be detected”. The same measure, in the same setting: under “construct 3: Mis19 deletion, includes site A and B, residues 52–99 (PRVYETELLVLRFREFGVKDNHNHPINLHSLRSKSLIRAQGKKLDLHN; UniProt O42995 52-99, looked up, fragment)” stands “Mis19 is associated with Mis16; also recorded: still able to interact with Mis16, although rather more weakly than the full-length protein”. As for LHNRVFLRRNVRAVKM [Mis19α2], the “increase in affinity over H4α1” value at Mis16 [1] (ratio of KD values, Mis16, ITC) was 3.6 fold. Moreover, the “competition / displacement of the other peptide from Mis16 (in words)” value at Mis16 [5] is listed as “capable of competing out histone H4α1”. With “Mis19 V101S F102S R105A: triple mutant of the Mis19 C-terminal peptide (residues 97–112) (LHNRSSLRANVRAVKM; UniProt O42995 97-112, looked up, variant V101S F102S R105A)”, the “binding to Mis16 (in words)” value with Mis16 [1] (setting [6]) is recorded as “completely abolished the interaction”. The KD entry with Mis16 [1] (ITC, iTC200, 30°C, 50 mM Tris, pH 7.5, 100 mM NaCl, 4% glycerol, 0.5 TCEP, 26 μM in cell, peptide 260 μM, 3-μl injections, 1,000 rpm, spacing 3 min) is “no binding”.

Take “construct 1: Mis19 deletion, includes site B and C, residues 66–112 (EFGVKDNHNHPINLHSLRSKSLIRAQGKKLDLHNRVFLRRNVRAVKM; UniProt O42995 66-112, looked up, fragment)”: the “association with Mis16” value in the assay with Mis16 [4] is on record as “Mis19 is associated with Mis16”. As to “Mis19^28–44: peptide from the N terminus of Mis19 (NLQQFDAILKRLERRRF)”, in assay [2], the “disruption … (size-exclusion)” value is listed as “no effect on complex formation”. The “disruption of preformed Mis16–Mis18–Mis19 complex (pull-down)” value in assay [3] was “no effect on complex formation”. For “Mis19 R105A: point mutant of the Mis19 C-terminal peptide (residues 97–112) (LHNRVFLRANVRAVKM)”, in the assay with Mis16 [1] (setting [6]), the “binding to Mis16 (in words)” value is reported as “substantially reduced binding”.
